Read-outs that look alike come from different tables or passages of the source. Starred links: 1 amine or outer side, 2 acyl side, 3 side chain; linkers in the order of their positions; H or OH if unused. Non-standard residues stand in square brackets, D forms with d. Groups on a side chain read outwards from the residue. *: point of attachment. Decanoyl(10-(4-HOOC-PhO)) = O=C(O)c1ccc(OCCCCCCCCCC(=O)*)cc1; C20 diacid = O=C(O)CCCCCCCCCCCCCCCCCCC(=O)*; C18 diacid = O=C(O)CCCCCCCCCCCCCCCCC(=O)*; γGlu = O=C(O)[C@H](CCC(=O)[*:2])N[*:1]; εLys = N[C@@H](CCCCN[*:1])C(=O)[*:2]; AEEA = NCCOCCOCC(=O)O; Aib = CC(C)(N)C(=O)O

The source of these data is patent US20230331803A1, “CO-AGONISTS OF THE GLP-1 AND AMYLIN RECEPTORS” (priority 2020, published 2023).

The subject of data set [1] is Sprague Dawley (SD) rats. In words: Acute food intake in ad libitum fed rats after a single subcutaneous administration.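 Also: food intake monitored in the HM2 system, three rats per cage kept on a reversed light cycle, with food and water freely available after the subcutaneous dose.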 The class given is in vivo, rat. The note with it: Table 6a, rat, single administration.
From the text: Sprague Dawley (SD) rats from Taconic Europe, Denmark were used for the acute food intake experiments, wherein the principles of laboratory animal care were followed.
The rats arrived at least 10-14 days before the start of the experiment to allow acclimatisation to experimental settings. During this period, the animals were handled at least 2 times. Immediately upon arrival, rats were put on a reversed light cycle (dark from 11am - 11pm) and put in the HM2 system and ID chipped. Three rats were housed in each cage. […] The rats were dosed once according to body weight with a 0.01-3 mg/kg solution administered subcutaneously (sc). The time of dosing was recorded for each group.
After dosing, the rats were returned to their home cages, where they had access to food and water. […] At the end of the experimental session, the animals were euthanised.
The target of data set [2] is T1, human GLP-1 receptor (Homo sapiens, UniProt P43220).
T1 construct: expressed in transfected cells; host or cells: BHK (Baby Hamster Kidney) cells, clone BHK 467-12A KZ-10, stably transfected, with CRE-luciferase reporter
T1 sequence (P43220 24-463): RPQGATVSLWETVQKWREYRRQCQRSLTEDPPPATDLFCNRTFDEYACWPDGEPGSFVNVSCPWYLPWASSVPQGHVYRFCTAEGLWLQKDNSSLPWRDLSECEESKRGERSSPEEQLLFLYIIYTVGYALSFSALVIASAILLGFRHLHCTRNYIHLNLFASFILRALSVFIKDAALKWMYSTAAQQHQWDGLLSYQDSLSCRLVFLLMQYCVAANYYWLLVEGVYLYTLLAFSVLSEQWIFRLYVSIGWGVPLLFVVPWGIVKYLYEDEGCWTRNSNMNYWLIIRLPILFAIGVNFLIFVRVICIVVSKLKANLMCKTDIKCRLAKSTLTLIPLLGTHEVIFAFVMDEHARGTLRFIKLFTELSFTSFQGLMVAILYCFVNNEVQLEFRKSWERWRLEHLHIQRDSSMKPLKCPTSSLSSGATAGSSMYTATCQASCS
Briefly: Human GLP-1 receptor in vitro potency assay (CRE-luciferase reporter, BHK cells). In kind it is cell-based. A general note: Reporter assays use an easily measured gene product as a stand-in for the process of interest.
Method: It is thus possible to measure GLP-1 receptor activity using a CRE-luciferase reporter gene introduced into Baby Hamster Kidney (BHK) cells co-expressing the GLP-1 receptor.
Cells were aliquoted and stored at -180° C. until use.
Plates were sealed and incubated at room temperature with gentle shaking for 30 minutes while protected from light. Luminescence was detected on a luminescence plate reader e.g. a Synergy 2 (BioTek).

Data set [3] in a line: Pharmacokinetic studies in Beagle dogs after oral administration of SNAC-based tablets. In kind it is in vivo. In outline: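 Fasted male Beagle dogs received immediate-release oral tablets containing 3–4 mg test substance with 100–300 mg SNAC, optionally after ~3 nmol/kg s.c. SEQ ID NO: 237 10 min before. EDTA plasma sampled up to 240 h; LCMS concentrations analysed non-compartmentally.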

The target in data set [4] is T2, human amylin receptor (hAmyR3) (Homo sapiens, UniProt O60896+P30988).
T2 construct: host or cells: BHK cells (Hollex-1 line: human calcitonin receptor (a) + CRE-Luc), further transfected with human RAMP3
T2 sequence (P30988 25-474): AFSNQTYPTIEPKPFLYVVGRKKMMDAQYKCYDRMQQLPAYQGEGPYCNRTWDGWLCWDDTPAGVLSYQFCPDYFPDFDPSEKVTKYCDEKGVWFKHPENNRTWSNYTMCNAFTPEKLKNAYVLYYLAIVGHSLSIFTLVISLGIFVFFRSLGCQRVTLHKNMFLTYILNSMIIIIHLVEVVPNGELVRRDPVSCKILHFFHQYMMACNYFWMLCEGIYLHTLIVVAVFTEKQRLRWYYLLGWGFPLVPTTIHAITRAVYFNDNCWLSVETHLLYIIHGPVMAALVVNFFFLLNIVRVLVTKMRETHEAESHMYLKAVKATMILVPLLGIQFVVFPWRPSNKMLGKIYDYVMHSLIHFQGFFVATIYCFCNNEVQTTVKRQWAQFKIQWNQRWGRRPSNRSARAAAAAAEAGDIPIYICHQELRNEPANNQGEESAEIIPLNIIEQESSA
T2 sequence (O60896 24-148): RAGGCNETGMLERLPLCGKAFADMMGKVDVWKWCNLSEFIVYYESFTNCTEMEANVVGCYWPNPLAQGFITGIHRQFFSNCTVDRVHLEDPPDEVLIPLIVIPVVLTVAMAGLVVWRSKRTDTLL
In words: Human amylin receptor in vitro potency assay (CRE-luciferase reporter, BHK cells).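 Also: BHK cells expressing human calcitonin receptor plus RAMP3 (amylin-3 receptor) with a CRE-luciferase reporter, agonist activity read as luminescence from cAMP-driven transcription, 7-point serial dilutions.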 The class given is cell-based.

For data set [5] the following is noted: endogenous hormone; cited from earlier work.
For data set [6] the following is noted: measured in humans (Meier et al., Diabetes, 2004); cited from earlier work.
Setting [7] is: dogs, oral administration (tablet).
Where [8] appears, read: Table 4a, BHK cells expressing human GLP-1R, CRE-Luc, 3 hours, read-out: Human GLP-1R potency [EC50 (pM)].
Where [9] appears, read: male, Beagle, dog, in vivo, po, Tmax (hr).
[10] abbreviates: male, Beagle, dog, in vivo, po, T½ (hr).
Where [11] appears, read: Table 4a, BHK hAmyR3/CRE-Luc cells, 3 hours, read-out: Human AmyR3 potency [EC50 (pM)].

Regarding “H-HWEGTFTSDVSSYLEEQAARK([AEEA-AEEA-γGlu-Decanoyl(10-(4-HOOC-PhO))])FIEWLVRGRGEGGGGGASELSTAALGRLSK([AEEA-AEEA-γGlu-Decanoyl(10-(4-HOOC-PhO))])ELHELATLPRTETGSGSP-NH2 [Compound 0231]”, in data set [1], the “Food intake relative to vehicle (%) 0-24 hr, 10 nmol/kg” value is 27% and the “Food intake relative to vehicle (%) 24-48 hr, 10 nmol/kg” value is 76%. This substance had a concentration giving a half-maximal response (EC50) in data set [2] of 5.6 pM. For the same substance, in data set [3] (setting [7]), the “AUC/D” value stood at 0.83 kg·h/L and the “Cmax/D” value was 0.27 kg/L. The Tmax in data set [3] (male, Beagle, dog, in vivo, dogs, oral administration (tablet), read-out: Tmax) is 1 h. Moreover, the half-life in data set [3] (male, Beagle, dog, in vivo, dogs, oral administration (tablet), read-out: T½ (converted)) was 6 h. This substance also gave a concentration giving a half-maximal response (EC50) in data set [4] of 68 pM.
As for “H-H[Aib]EGTFTSDVSSYLEEQAAREFIAWLVRGRK([AEEA-AEEA-γGlu-C20 diacid])GGGGEASELSTAALGRLSAELHELATLPRTETGSGSP-NH2 [Compound 0502]”, the “Food intake relative to vehicle (%) 0-24 hr, 10 nmol/kg” value in data set [1] was 61%. For the same substance, the “Food intake relative to vehicle (%) 24-48 hr, 10 nmol/kg” value in data set [1] was 72%. The EC50 is 8.4 pM in data set [2] (setting [8]) and 9 pM in data set [4] (setting [11]). Further, the time of peak concentration (Tmax) turned out to be 4.0 h in data set [3] (male, Beagle, dog, in vivo, po) and 2 h in data set [3] (setting [9]). In data set [3] (setting [10]), this substance had a half-life of 66 h.
On to “H-H[Aib]EGTFTSDVSSYLEEQAAREFIAWLVRGRK([AEEA-AEEA-γGlu-C18 diacid])GGGGEASELSTAALGRLSAELHELATLPRTETGSGSP-NH2 [Compound 0111]”, for which the “Food intake relative to vehicle (%) 0-24 hr, 10 nmol/kg” value in data set [1] is on record as 28%. For the same substance, the “Food intake relative to vehicle (%) 24-48 hr, 10 nmol/kg” value in data set [1] is recorded as 75%. For the same substance, the EC50 was determined as 3 pM in data set [2] (setting [8]) and 11.5 pM in data set [4] (setting [11]). The “Ability to agonise the GLP-1 receptor, in words” value in data set [2] (Tables 4a-4c) is recorded as “retained full potency on both receptors”. Further, the “Tmax” value was 2.0 h in data set [3] (male, Beagle, dog, in vivo, po) and 1.5 h in data set [3] (setting [9]). Further, the “T½” value in data set [3] (male, Beagle, dog, in vivo, po) amounted to 42 h. In addition, the half-life in data set [3] (setting [10]) is 44 h. Moreover, the “Ability to agonise the amylin receptor, in words” value in data set [4] (Tables 4a-4c) is reported as “retained full potency on both receptors”.
Turning to “H-H[Aib]EGTFTSDVSSYLEGQAAKEFIAWLVRGRK([εLys-AEEA-AEEA-γGlu-C18 diacid])GGEASELSTAALGRLSAELHELATLPRTETGSGSP-NH2 [Compound 0045]”, in data set [1], the “Food intake relative to vehicle (%) 0-24 hr, 10 nmol/kg” value worked out at 46% and the “Food intake relative to vehicle (%) 24-48 hr, 10 nmol/kg” value stood at 80%. Moreover, the EC50 in data set [2] (setting [8]) was 19.4 pM. Moreover, in data set [3] (dog, in vivo, po), the “AUC/D” value was found to be 10.90 kg·h/L and the “Cmax/D” value is reported as 0.27 kg/L. Besides, the Tmax in data set [3] (setting [9]) came out at 1.3 h. The substance also gave a half-life in data set [3] (setting [10]) of 41 h. In addition, the 50% effective concentration (EC50) in data set [4] (setting [11]) came out at 25.9 pM.
For the substance “H-H[Aib]EGTFTSDVSSYLEGQAAREFIAWLVRGRGQEPK([AEEA-AEEA-γGlu-C18 diacid])GQAPEASELSTAALGRLSAELHELATLPRTETGSGSP-NH2 [Compound 0084]”, in data set [1], the “Food intake relative to vehicle (%) 0-24 hr, 10 nmol/kg” value is 44% and the “Food intake relative to vehicle (%) 24-48 hr, 10 nmol/kg” value is given as 50%. For the same substance, in data set [2] (setting [8]), the half-maximal effective concentration (EC50) came out at 2.5 pM. Moreover, in data set [3] (dog, in vivo, po), the “AUC/D” value was 15.16 kg·h/L and the “Cmax/D” value was 0.36 kg/L. The Tmax in data set [3] (setting [9]) amounted to 1.5 h. In data set [3] (setting [10]), this substance gave a half-life of 47 h. Besides, the 50% effective concentration (EC50) in data set [4] (setting [11]) came out at 14 pM.
For “human amylin (KCNTATCATQRLANFLVHSSNNFGAILSSTNVGSNTY; Islet amyloid polypeptide; UniProt P10997 34-70, looked up) [37-amino acid long polypeptide hormone co-secreted with insulin from the pancreatic beta-cell]”, the half-life in data set [5] and in data set [6] was 0.25 to 0.333 h throughout.

For orientation: EC50 means the concentration at which the effect is half-maximal. One may read the Tmax as the time at which the peak concentration occurs.
